Results reported in patent US20210147814A1, “METHODS FOR GENERATING PLURIPOTENT STEM CELLS” (Memorial Sloan Kettering Cancer Center, priority 2017, published 2021).
Read-outs that look alike come from different tables or passages of the source.

Experiments:
mouse A-iPSC = assay: DNA damage response in mouse A-iPSC treated with GSS inhibitor; type: cell-based; conditions: treatment of mouse A-iPSC; data not shown
From the text: A-iPSC have excessive levels of glutathione (FIG. 3D) and elevated ROS scavenging activity (FIG. 3E) relative to Y-iPSC or ESC. While ROS levels in A-iPSC were increased by treatment with DNA damaging agents (FIG. 3E) and this might be sufficient to cause direct DNA damage and genomic instability, improper scavenging of ROS by excess glutathione would limit the ROS cellular stress signal needed to induce the DNA damage response, which would in turn reduce apoptosis and increase A-iPSC exposure to additional genotoxic stress, allowing accumulation of mutations and other genomic alterations. Upon ZSCAN10 expression, glutathione and ROS scavenging activity were normalized to levels equivalent to those seen in Y-iPSC and ESC (FIG. 3D, 3E). In addition, shRNA knockdown of GSS in reprogrammed A-iPSC (data not shown) decreased glutathione levels and ROS scavenging activity (data not shown), increased apoptosis (FIG. 3F), and recovered the DNA damage response (FIG. 3G). The DNA damage response was also recovered by treatment of A-iPSC with the GSS pharmacological inhibitor, L-Buthionine-sulfoximine (BSO) (data not shown). Conversely, overexpression of GSS in Y-iPSC (data not shown) increased glutathione and ROS scavenging activity (data not shown), decreased apoptosis (FIG. 3F), and blunted the DNA damage response (FIG. 311).

[1] = tested on: G-quadruplex (G4) DNA structure; assay: G4 DNA structure formation (G4 IHC staining, G4-antibody ChIP-seq) in fibroblasts; type: cell-based, human; conditions: for G4 level / G4 DNA structure formation: 4 hours; for G4 DNA structure formation: cells with high ROS levels
Description: G4 and 8-oxoguanosine Immunostaining. Cells were fixed in 3.7% formaldehyde for 20 minutes at room temperature and washed with phosphate buffered saline (PBS). Samples were then permeabilized with 0.1 Triton X-100 in PBS for 20 minutes and blocked for 1 hour with 3% bovine serum albumin (BSA) in PBS-T, followed by incubation with primary antibodies for 2 hours at room temperature or overnight at 4° C. Anti-DNA G-quadruplex (G4) Antibody, clone 1H6 (MABE1126, EMD Millipore, Burlington, Mass.) was used for the detection of DNA G-quadruplex and ANTI-8 HYDROXYGUANOSINE AB (N45.1) AB48508 from Abcam (Cambridge, United Kingdom). Primary antibodies were used at a 1:250 dilution and 1:50 respectively. Alexa 568-conjugated goat anti-mouse IgM (A-21124) was from Molecular Probes (Eugene, Oreg.). Secondary antibodies were used at a 1:1000 dilution. The nuclei were stained with 4′,6-diamidino-2-phenylindole (DAPI, Sigma, St. Louis, Mo.). Image quantification was performed with Image J (NIH, Bethesda, Md.), quantifying mean fluorescence intensity in the nuclear regions.
GSH and BSO Treatment, Time-Course Experiment. High ROS fibroblasts were treated by adding glutathione reduced ethyl ester (3 mM, GEE; Gold Biotechnology Inc., St. Louis, Mo.) to the media. Treated High ROS fibroblasts were then fixed and processed for staining at multiple timepoints. Low ROS fibroblasts were treated with L-Buthionine-sulfoximine (500 μM, BSO; Sigma, St. Louis, Mo.) to the media. Treated Low ROS fibroblasts were then fixed and processed for staining at multiple timepoints.
CHIP-SEQ for G4 Structures. Chromatin immunoprecipitation (ChIP) was performed according to the published protocol (see Carey, M. F., et al., Chromatin Immunoprecipitation (ChIP), COLD SPRING HARB PROTOC (CSH Press) (2009)). Anti-DNA G-quadruplex (G4) Antibody, clone 1H6 (MABE1126, EMD Millipore, Burlington, Mass.) was used for the detection of DNA G-quadruplex.

pATM [2] = assay: Immunoblot of pATM after phleomycin treatment in BSO-A-iPSC; type: cell-based; conditions: 0.5 mM from end of reprogramming day 5, ten independent clones of A-iPSC
Description: Immunoblot analysis. […] Secondary antibodies were from Cell Signaling (1:10,000).
BSO treatment. BSO-A-iPSC were generated in the presence of 500 μM of L-Buthionine-sulfoximine (BSO, Sigma, B2515) starting on the end of reprogramming day 5. The treatment was kept throughout the end of reprogramming process and after picking the colonies.
BSO-A-iPSC were generated in the presence of 500 μM of L-Buthionine-sulfoximine (BSO, Sigma B2515) starting on the end of reprogramming day 5 as previously described (see, e.g., Ji, et al. Experimental & Molecular Medicine 42:175-186 (2010)).

somatic cells = assay: Modification of cellular ROS levels in high-ROS / low-ROS somatic cells; type: cell-based, human; conditions: 4 hours
human A-iPSC = tested on: human A-iPSC
Description: (§1) For the generation of human A-iPSC, 10^5 skin fibroblasts such as young somatic cells (Y-SC) from MRCS and aged somatic cells (A-SC) from LS and AG4 donors aged 80 to 100 years were infected with retrovirus generated from the tetracistronic SFG-SV2 vector encoding for hOCT4, hSOX2, hKLF4, and hMYC in 6-well dishes with 0.5 mL of each viral supernatant (total 2 mL per well); and spun at 2500 rpm at RT for 90 min (BenchTop Centrifuge, BeckmanCoulter, Allegra-6R). The cells were contacted with 3 mM glutathione reduced ethyl ester prior to and during the early stage of reprogramming (from one day before reprogramming virus infection to 10 days post reprogramming virus infection).
Copy number profiling analysis. Copy number profiling analysis was performed according to a published protocol (Baslan et al., Genome Research 25:1-11 (2015)).

ZSCAN10 = conditions: A-iPSC generated with 3 mM treatment; vs untreated A-iPSC
Description: (§2) Quantitative real time-PCT (Q-PCR) analysis. The expression levels of genes (ZSCAN10, GSS) were quantified by Q-PCR with Power SYBR Green PCR mastermix (Applied Biosystems). Total RNAs (1 μg) were reverse-transcribed in a volume of 20 μL using the M-MuLV Reverse Transcriptase system (New England Biolabs), and the resulting cDNA was diluted into a total volume of 200 μL. 10 μL of this synthesized cDNA solution was used for analysis. For pluripotent genes, each reaction was performed in a 25-μL volume using the Power SYBR Green PCR mastermix (Applied Biosystems). The conditions were programmed as follows: initial denaturation at 95° C. for 10 min followed by 40 cycles of 30 sec at 95° C., 1 min at 55° C., and 1 min at 72° C.; then 1 min at 95° C., 30 s at 55° C., and 30 sec at 95° C. All of the samples were duplicated, and the PCR reaction was performed using an Mx3005 reader (Stratagene), which can detect the amount of synthesized signals during each PCR cycle. The relative amounts of the mRNAs were determined using the MxPro program (Strategene). The amount of PCR product was normalized to the percentage of the expression level of β-actin.

GSS = conditions: A-iPSC generated with 3 mM treatment; vs untreated A-iPSC
Description: as §2

A-SC from AG4 donor = conditions: 3 mM for three days in the media
From the text: Reactive oxygen species (ROS) analysis. The production of superoxide by mitochondria can be visualized in fluorescence microscopy using the MitoSOX™ Red reagent (M36008, Thermofisher scientific). MitoSOX™ Red reagent permeates live cells where it selectively targets mitochondria. It is rapidly oxidized by superoxide but not by other reactive oxygen species (ROS) and reactive nitrogen species (RNS). The oxidized product is highly fluorescent upon binding to nucleic acid. Fluorescence microscopy was used to visualize the fluorescence and imaging software (Image J) was used to quantify the staining of the different cell lines.
MitoSOX RED Staining. MitoSOX Red staining (MitoSOX™ Red mitochondrial superoxide indicator *for live-cell Imaging, M36008, ThermoFisher Scientific, Waltham, Mass.) was performed according to Molecular Probes/Thermo Scientific protocol. Briefly, the MitoSOX™ reagent stock solution (5 mM, prepared in HBSS/Ca/Mg or suitable buffer) was diluted to make a 5 μM MitoSOX™ reagent working solution. 1.0-2.0 mL of the 5 μM MitoSOX™ reagent working solution was applied to cover cells adhering to coverslip(s). Cells were incubated for 10 minutes at 37° C., protected from light. Cells were washed before imaging.

human AG4 fibroblasts = conditions: AG4-GSH vs AG4 control, 100,000 cells each, iPSC colonies counted at day 21
Description: as §1

pATM [3] = conditions: A-hiPSC from AG4 fibroblasts, 3 mM from one day before to 10 days post reprogramming virus infection, phleomycin 2 h, 30 μg/mL, vs untreated A-hiPSC
Description: as §1

Question: CCCCS(=N)(=O)CCC(N)C(=O)O [BSO, L-Buthionine-sulfoximine] was tested. Which DNA damage response (mouse A-iPSC) did it give?
Answer: recovered

Question: What about the G4 level ([1]; 0.5 mM, low-ROS somatic cells) of the same compound?
Answer: increases

Question: And the “G4 IHC staining of fibroblasts” value ([1]; low ROS fibroblasts, 500 μM, time-course (FIG. 14B))?
Answer: higher G4 IHC staining

Question: And the “DNA damage response (pATM immunoblot)” value (pATM [2])?
Answer: recovery of the DNA damage response

Question: What about the “cellular ROS level” value (somatic cells; 0.5 mM, low-ROS somatic cells) of the same compound?
Answer: increases

Question: How did the “genomic stability (copy number profiling)” value (human A-iPSC; A-hiPSC from AG4 fibroblasts, 3 mM prior to and during first 10 days of reprogramming, vs untreated A-hiPSC) turn out when N[C@@H](CCC(=O)N[C@@H](CS)C(=O)NCC(=O)O)C(=O)O [glutathione reduced ethyl ester] was run?
Answer: maintains genomic stability

Question: And the “detected rearrangements per number of clones (copy number profiling)” value (human A-iPSC; human A-iPSC with glutathione treatment, 10 clones, untreated A-hiPSC 7/11)?
Answer: 0/10

Question: What about the “ZSCAN10 levels in the A-iPSC (Q-PCR)” value (ZSCAN10) of the same compound?
Answer: elevated

Question: And the “GSS levels in the A-iPSC (Q-PCR)” value (GSS)?
Answer: reduced

Question: What about the “G4 DNA structure formation” value ([1]; 3 mM) of the same compound?
Answer: reduces G4 DNA structure formation

Question: What about the “G4 DNA structure formation” value ([1]; 3 mM, listed as GEE) of the same compound?
Answer: decreases

Question: What about the “G4 IHC staining of fibroblasts” value ([1]; high ROS fibroblasts, 3 mM, time-course (FIG. 14A)) of the same compound?
Answer: lower G4 IHC staining

Question: What about the “cellular ROS level (MitoSOX staining)” value (A-SC from AG4 donor) of the same compound?
Answer: reduces the cellular ROS level

Question: And the “increase of reprogramming efficiency” value (human AG4 fibroblasts)?
Answer: approximately 10 fold

Question: What about the “DNA damage response (pATM immunoblot)” value (pATM [3]) of the same compound?
Answer: protects the DNA damage response

Question: And the “DNA damage response (pATM immunoblot)” value (pATM [3]; listed as glutathione)?
Answer: impairs the DNA damage response

Question: And the “cellular ROS level” value (somatic cells; 3 mM, high-ROS somatic cells)?
Answer: decreases

Question: How did the G4 level ([1]; 10 μM, somatic cells) turn out when NCCOc1cc(C(=O)Nc2cc(OCCN)c3ccccc3n2)nc(C(=O)Nc2cc(OCCN)c3ccccc3n2)c1 [pyridostatin] was run?
Answer: increases G4
